A short description of data set [1]: Ex vitro stability study in fetal bovine serum, SDS-PAGE. To be noted: 50 µg peptide in 200 µL, 37 °C, Coomassie, at least two measurements. It counts as in vitro ADME. As for the experimental part: (§1) Peptide stability was tested in the presence of fetal bovine serum (FBS, Gibco®) and human serum (HS, Sigma-Aldrich, Deisenhofen, Germany). Therefore 50 µg of the peptide was mixed with 0 µL (0%), 4 µL (2%) and 20 µL (10%) pure FBS or HS and refilled with PBS buffer to a total volume of 200 µL and incubated for 1 day, 6 days and 7 days at 37 °C. Sample aliquots of 10 µL were taken before incubation (0 h) and after 1 h, 8 h, 24 h, 2 days and 7 days of incubation. The aliquots (10 µL) were immediately mixed with 10 µL 2 × loading sample buffer and stored at −20 °C. The collected samples of the stability studies were analyzed by SDS- polyacrylamide gel electrophoresis (BioRad, Mini-PROTEAN Tetra System). As a standard, the Ultra-low Range Molecular Weight Marker M3546 (Sigma-Aldrich, Deisenhofen, Germany) was used. Before use, the collected samples of the stability studies (10 µL aliquot + 10 µL 2 xLD), as well as the Ultra-Low Molecular Weight marker (ULMW), were brought to room temperature. A concentration series in the range of 0.5 µg, 1 µg and 2.5 µg peptide per 10 µL sample volume was prepared in PBS for each peptide. In total, 10 µL of the resulting samples (0.5 µg, 1 µg and 2.5 µg peptide) were mixed with 10 µL 2 × loading buffer. Afterwards, all samples (collected samples, ULMW, concentration series) were incubated at 95 °C for 10 min.

Data set [2] can be described thus: Ex vitro stability study in human serum, SDS-PAGE. The format is in vitro ADME. The settings on record: 50 µg peptide in 200 µL, 37 °C, Coomassie. As for the experimental part:
as §1

For data set [3], the system named is glioblastoma cell line LN-229. It counts as cell-based. To be noted: LN-229, PI-uptake. As for the experimental part:
(§2) To determine peptide-induced cell death, cells were resuspended in respective media (see Section 2.2) and diluted to a concentration of 1 × 10^6 cells/mL. 100 µL Aliquots (10^5 cells) were incubated with different peptide concentrations (5 µM to 100 µM) for up to 8 h in the presence of propidium iodide PI (2 µL/10^5 cells of 50 µg/mL, Molecular Probes Inc., Eugene, OR, USA) at room temperature in black 96-well plates. PI-uptake was measured after 0, 1, 2, 4 and 8 h using the GloMax® Multi+ Detection System (Promega, Madison, WI, USA). Cytotoxicity was calculated from the percentage of PI-positive cells in media alone (P0) and in the presence of peptide (PX) (see Equation (3)). Triton-X-100 was used to determine 100% of PI-positive cells (P100). (3) %PI−uptake=100×(PX−P0)/(P100−P0)
(§3) Excitation and emission wavelengths were 536 nm and 617 nm, respectively. The cytotoxicity of the peptides was further investigated in the presence of different serum types and amounts, as well as in the presence of protease inhibition.

Data set [4] concerns glioblastoma cell line U-87 mg. It counts as cell-based. The settings on record: PI-uptake. As for the experimental part: as §2, §3
The test system of data set [5] is melanoma cell line SBcl-2. The format is cell-based. To be noted: SBcl-2, PI-uptake. As for the experimental part:
as §2, §3

A short description of data set [6]: Propidium iodide-uptake toxicity assay, NHDF. The settings on record: human, normal human dermal fibroblasts (NHDF), PI-uptake, fibroblast growth medium (2% FBS). It counts as cell-based, human. As for the experimental part:
as §2, with “([…])” for “(10^5 cells) were incubated with different peptide concentrations (5 µM to 100 µM)”
as §3

The conditions of data set [7]: pH 7.4.
Procedure: (§4) Spectra of tryptophan fluorescence were measured at room temperature with a Cary Eclipse fluorescence spectrophotometer of Varian (Salt Lake City, UT, USA). The excitation wavelength was set to 280 nm, and the slid-width was 10 nm. The emission was recorded between 300 nm and 410 nm.
(§5) Quenching of Tryptophan was carried out in the presence and absence of phospholipid liposomes (lipid-to-peptide ratio 25:1) using 0.1, 0.4 and 0.7 M acrylamide. The data were analyzed according to the Stern–Volmer equation (Equation (2)):(2) F0/F=1+KSV×[Q] where F0 and F represent the fluorescence emission intensities in the absence and presence of the quencher molecule (Q), and KSV is the Stern–Volmer quenching constant, which is a quantitative measure for the accessibility of tryptophan to acrylamide [80].
A short description of data set [8]: Tryptophan fluorescence and acrylamide quenching in buffer (solubility/aggregation). The settings on record: for λ em,max / KSV (Stern–Volmer constant): PBS, mean ± SD, three experiments; for λ em,max: Trp fluorescence, excitation 280 nm, room temperature; for KSV (Stern–Volmer constant): acrylamide 0.1, 0.4, 0.7 M.
Procedure: as §4, §5
The subject of the next data set is melanoma cell line A375. It counts as cell-based. The settings on record: A375, PI-uptake, 10% FBS. As for the experimental part:
as §2, §3
The standard growth medium used for cell line A375 was DMEM containing 10% fetal bovine serum (FBS). Before the study of peptide-induced cytotoxicity, cells were diluted to 10^5 cells/100 µL in DMEM containing 2% FBS. […]

The test system of data set [9] is normal human dermal fibroblasts NHDF. Nature of the data set: Propidium iodide-uptake toxicity assay, NHDF. The format is cell-based. The settings on record: 2–20 µM peptide, 8 h. Here is the method:
as §2, with “([…])” for “(10^5 cells) were incubated with different peptide concentrations (5 µM to 100 µM)”
as §3

Assay in data set [10]: not given
The source holds these as a separate data set.

The conditions of data set [11]: cited from earlier work. The text has this: The blood-brain barrier (BBB) is formed by a tightly sealed monolayer of endothelial cells, and the tight junctions between the endothelial cells are responsible for the barrier function of the BBB. Various drugs are discovered to treat central nervous system (CNS) disorders but fail to enter the market because of their inability to cross the BBB [19]. Vemurafenib, an antitumoral agent that is capable to pass the BBB, was approved in 2011. It inhibits the BRAF-serine/threonine-kinase and leads to a median survival of 13.6 months compared to 9.7 months upon treatment with dacarbazine [ ...

Setting [12] is: 2% FBS in PBS, up to 7 days (9D-RDP215 main series 2 days, repeat 7 days).
[13] abbreviates: 2% HS in PBS, 7 days, at least two measurements.

Where two headings read alike, the source gives them in different places. Square brackets hold non-standard residues; d marks the D form. Peptide text beside a SMILES is read from it.

With `CC[C@H](C)[C@H](NC(=O)[C@@H](CCCNC(=N)N)NC(=O)[C@H](Cc1c[nH]c2ccccc12)NC(=O)[C@H](N)Cc1ccccc1)C(=O)N[C@H](CCCNC(=N)N)C(=O)N[C@H](C(=O)N[C@H](CCCNC(=N)N)C(=O)N[C@H](CCCNC(=N)N)C(=O)N1CCC[C@H]1C(=O)N[C@H](CCCNC(=N)N)C(=O)N[C@H](CCCNC(=N)N)C(=O)N[C@H](C(=O)N[C@H](CCCNC(=N)N)C(=O)N[C@H](C(=O)N[C@H](CCCNC(=N)N)C(=O)N[C@@H](Cc1c[nH]c2ccccc12)C(=O)N[C@H](Cc1ccccc1)C(N)=O)[C@@H](C)CC)[C@@H](C)CC)[C@@H](C)CC` [9D-RDP215, 9D-R-DIM-P-LF11-215] (H-[dF]W[dR]I[dR]I[dR][dR]P[dR][dR]I[dR]I[dR]W[dF]-NH2), the peptide degradation entry is recorded as “no degradation” in data set [1] (setting [12]); “no degradation” in [1] (10% FBS in PBS, up to 7 days); “does not show any peptide degradation” in data set [2] (setting [13]); “does not show any peptide degradation” in data set [2] (10% HS in PBS, up to 7 days, at least two measurements). The “LC50 after 8 h” value was found to be 1.4 ± 5.1 µM in [3], 1.6 ± 0.1 µM in [4] and 1.8 ± 0.1 µM in [5]. Further, it took 58.8 ± 4.2 µM to reach half-maximal cytotoxicity in data set [6] (CC50 at 4 h). The CC50 (as a rule, the concentration giving 50% cytotoxicity) at 8 h in [6] is 18.9 ± 1 µM. Further, the “solubility / aggregation in buffer” value in data set [7] is “completely dissolved and not aggregated”. Moreover, in data set [8], the “λ em,max” value was determined as 354 ± 0.5 nm. The “KSV (Stern–Volmer constant)” value in data set [8] worked out at 27.0 ± 2.8 M⁻¹.
Turning to `CC[C@H](C)[C@H](NC(=O)[C@H](CCCNC(=N)N)NC(=O)[C@@H](NC(=O)[C@H](CCCNC(=N)N)NC(=O)[C@H](CCCNC(=N)N)NC(=O)[C@@H]1CCCN1C(=O)[C@H](CCCNC(=N)N)NC(=O)[C@H](CCCNC(=N)N)NC(=O)[C@@H](NC(=O)[C@H](CCCNC(=N)N)NC(=O)[C@@H](NC(=O)[C@H](CCCNC(=N)N)NC(=O)[C@H](Cc1c[nH]c2ccccc12)NC(=O)[C@@H](N)Cc1ccccc1)[C@@H](C)CC)[C@@H](C)CC)[C@@H](C)CC)C(=O)N[C@@H](CCCNC(=N)N)C(=O)N[C@@H](Cc1c[nH]c2ccccc12)C(=O)N[C@@H](Cc1ccccc1)C(N)=O` [RDP215, R-DIM-P-LF11-215] (H-FWRIRIRRPRRIRIRWF-NH2), the λem,max with DPPS is 336 nm. In addition, the peptide degradation result in [1] (setting [12]) is “No degradation”. Besides, in data set [1] (10% FBS in PBS, up to 7 days), the peptide degradation result was “No degradation”. In addition, the peptide degradation entry in data set [2] (2% HS in PBS, 1 h to 2 days) was “ongoing peptide degradation”. In addition, in data set [2] (setting [13]), the peptide degradation entry is reported as “completely degraded”. Further, the peptide degradation entry in [2] (10% HS in PBS, 24 h, at least two measurements) is listed as “completely degraded”. Besides, the “LC50 after 4 h” value with melanoma cell line A375 (4 h) is recorded as 17.1 ± 1.5 µM. In addition, the “LC50 after 8 h” value in the data set with melanoma cell line A375 (8 h) stood at 3.8 ± 0.3 µM. For the same molecule, the “LC50 after 8 h” value in data set [3] is reported as 1.7 ± 0.1 µM. In addition, in data set [4], the “LC50 after 8 h” value is recorded as 3.0 ± 0.1 µM. For the same molecule, the “LC50 after 8 h” value in [5] was found to be 4.7 ± 0.4 µM. For the same molecule, in [6], the CC50 at 4 h was determined as 99.1 ± 0.1 µM and the midpoint of cytotoxicity, the CC50 at 8 h, lay at 68.2 ± 1.8 µM. Also, the “harm on NHDF cells (PI-uptake)” value in data set [9] was “no harm”. Moreover, the decrease of KSV vs buffer in data set [10] worked out at 20.7 M⁻¹. Also, the “solubility / aggregation in buffer” value in [8] (PBS pH 7.4, concluded from Trp emission maximum and KSV) is “completely dissolved and not aggregated”. Also, in data set [8], the “λ em,max” value is 356 ± 0 nm and the “KSV (Stern–Volmer constant)” value amounted to 24.7 ± 5.4 M⁻¹.
With `CCCS(=O)(=O)Nc1ccc(F)c(C(=O)c2c[nH]c3ncc(-c4ccc(Cl)cc4)cc23)c1F` [Vemurafenib, vemurafenib], the median survival in [11] is on record as 13.6 months.
With `CN(C)/N=N/c1[nH]cnc1C(N)=O` [dacarbazine], in data set [11], the median survival is recorded as 9.7 months.

Values taken from article PMC8395111 (International Journal of Molecular Sciences, 2021).
